Laboratory results from ChEMBL document CHEMBL6182828, “Medicinal chemistry-based perspectives on thiophene and its derivatives: exploring structural insights to discover plausible druggable leads” (RSC Med Chem, 2025).
pEC50, pIC50: −log10 of the molar value.

Legend:
Bacillus subtilis [1] = assay: Antibacterial activity against Bacillus subtilis ATCC 6633 assessed as zone of inhibition incubated for 48 hrs by agar diffusion method; type: functional
Escherichia coli = assay: Antibacterial activity against Escherichia coli ATCC 35218 assessed as zone of inhibition incubated for 48 hrs by agar diffusion method; type: functional
[2] = Half life in po dosed human; type: ADME, organism-based; conditions: in vivo
Candida albicans = assay: Antifungal activity against Candida albicans assessed as zone of inhibition; type: functional
Arthroderma pannicola = assay: Antifungal activity against Arthroderma pannicola assessed as diameter of zone of inhibition; type: functional
Glucagon receptor [3] = molecular target: T1, Glucagon receptor (Homo sapiens, UniProt P47871); assay: Antagonist activity at wild type human GCGR transfected in HEK293T cells assessed as intracellular cAMP accumulation incubated for 60 mins by FRET assay; type: functional, cell-based
T1 sequence (P47871 whole entry): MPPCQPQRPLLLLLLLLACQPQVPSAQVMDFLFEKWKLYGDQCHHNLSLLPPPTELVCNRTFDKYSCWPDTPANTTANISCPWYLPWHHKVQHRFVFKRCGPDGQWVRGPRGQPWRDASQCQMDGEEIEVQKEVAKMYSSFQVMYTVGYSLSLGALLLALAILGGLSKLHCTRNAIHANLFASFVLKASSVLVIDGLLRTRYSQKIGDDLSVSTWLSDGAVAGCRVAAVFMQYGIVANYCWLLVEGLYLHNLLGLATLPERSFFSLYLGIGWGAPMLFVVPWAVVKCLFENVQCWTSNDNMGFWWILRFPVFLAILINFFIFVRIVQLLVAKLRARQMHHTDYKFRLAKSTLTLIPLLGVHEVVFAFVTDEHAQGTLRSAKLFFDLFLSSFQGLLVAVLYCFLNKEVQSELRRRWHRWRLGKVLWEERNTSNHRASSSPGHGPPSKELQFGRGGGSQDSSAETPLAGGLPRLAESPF

Glucagon receptor [4] = molecular target: T1, Glucagon receptor; assay: Antagonist activity at wild type human GCGR
[5] = Half life in human, iv; type: ADME
[6] = Elimination half life in human at 5 mg/kg, po; type: ADME, organism-based; conditions: in vivo, read-out: LambdaZ (converted)
[7] = molecular target: Amine oxidase [flavin-containing] A (Homo sapiens, UniProt P21397); assay: Inhibition of human MAO-A measured after 25 mins by Amplex Red reagent based fluorescence analysis
Sequence of Amine oxidase [flavin-containing] A (P21397 whole entry): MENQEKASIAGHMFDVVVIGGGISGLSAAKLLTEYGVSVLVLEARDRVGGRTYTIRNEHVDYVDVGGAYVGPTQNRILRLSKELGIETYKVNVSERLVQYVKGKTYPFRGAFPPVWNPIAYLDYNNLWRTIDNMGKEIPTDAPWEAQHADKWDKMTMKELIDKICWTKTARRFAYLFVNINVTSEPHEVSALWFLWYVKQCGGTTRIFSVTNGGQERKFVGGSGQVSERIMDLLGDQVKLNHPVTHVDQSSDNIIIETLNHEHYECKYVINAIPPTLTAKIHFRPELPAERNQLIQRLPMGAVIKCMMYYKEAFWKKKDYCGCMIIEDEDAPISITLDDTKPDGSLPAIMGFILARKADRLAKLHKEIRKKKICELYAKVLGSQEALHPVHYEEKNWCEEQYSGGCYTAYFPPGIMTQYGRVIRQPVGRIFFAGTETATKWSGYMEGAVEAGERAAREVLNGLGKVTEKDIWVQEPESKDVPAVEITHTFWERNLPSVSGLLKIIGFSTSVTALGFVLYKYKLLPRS

dsRNA = assay: Inhibition of double stranded RNA (unknown origin); type: nucleic-acid assay
NCI-H460 = assay: Growth inhibition of human NCI-H460 cells incubated for 48 hrs by SRB assay; type: functional
MCF7 [8] = assay: Growth inhibition of human MCF7 cells incubated for 48 hrs by SRB assay; type: functional
SF-268 = assay: Growth inhibition of human SF-268 cells incubated for 48 hrs by SRB assay; type: functional
[9] = Antioxidant activity assessed as DPPH radical scavenging activity; type: functional
Leishmania major = assay: Antileishmanial activity against Leishmania major promastigotes MHOM/IL/80/Friedlin expressing firefly luciferase infected in rhesus monkey LLC-MK2 cells assessed as reduction in parasite growth incubated for 72 hrs by luciferase based luminescence analysis; type: functional, organism-based; conditions: LLC-MK2, 72 h
MCF7 [10] = assay: Antiproliferative activity against human MCF7 cells; type: functional, cell-based
[11] = molecular target: T2, Polyunsaturated fatty acid 5-lipoxygenase (Homo sapiens, UniProt P09917); assay: Inhibition of 5-LOX (unknown origin)
T2 sequence (P09917 whole entry): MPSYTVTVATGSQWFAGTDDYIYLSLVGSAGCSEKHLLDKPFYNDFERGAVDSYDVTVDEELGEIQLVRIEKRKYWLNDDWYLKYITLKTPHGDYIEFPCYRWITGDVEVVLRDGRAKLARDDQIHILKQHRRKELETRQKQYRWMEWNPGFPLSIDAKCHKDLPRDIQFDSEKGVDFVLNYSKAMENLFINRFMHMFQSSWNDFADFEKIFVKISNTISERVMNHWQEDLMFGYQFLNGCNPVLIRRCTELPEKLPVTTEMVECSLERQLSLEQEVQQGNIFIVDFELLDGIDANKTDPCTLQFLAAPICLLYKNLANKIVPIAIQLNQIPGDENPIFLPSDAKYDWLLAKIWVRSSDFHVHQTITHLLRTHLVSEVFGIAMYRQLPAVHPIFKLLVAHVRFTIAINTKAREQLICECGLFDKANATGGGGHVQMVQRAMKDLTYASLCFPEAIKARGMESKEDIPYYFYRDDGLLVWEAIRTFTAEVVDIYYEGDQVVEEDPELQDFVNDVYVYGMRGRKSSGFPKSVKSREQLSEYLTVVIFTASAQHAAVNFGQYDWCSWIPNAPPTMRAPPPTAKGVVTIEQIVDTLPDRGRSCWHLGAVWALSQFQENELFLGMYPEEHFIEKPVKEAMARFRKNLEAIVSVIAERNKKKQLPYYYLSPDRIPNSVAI

Bacillus subtilis [12] = assay: Antibacterial activity against Bacillus subtilis ATCC 6633 assessed as zone of inhibition; type: functional
Staphylococcus aureus = assay: Antibacterial activity against Staphylococcus aureus ATCC 25923 assessed as zone of inhibition; type: functional
Acetylcholinesterase = Acetylcholinesterase (Homo sapiens, UniProt P22303); assay: Inhibition of AChE (unknown origin) by Ellman's method
Sequence of Acetylcholinesterase (P22303 whole entry): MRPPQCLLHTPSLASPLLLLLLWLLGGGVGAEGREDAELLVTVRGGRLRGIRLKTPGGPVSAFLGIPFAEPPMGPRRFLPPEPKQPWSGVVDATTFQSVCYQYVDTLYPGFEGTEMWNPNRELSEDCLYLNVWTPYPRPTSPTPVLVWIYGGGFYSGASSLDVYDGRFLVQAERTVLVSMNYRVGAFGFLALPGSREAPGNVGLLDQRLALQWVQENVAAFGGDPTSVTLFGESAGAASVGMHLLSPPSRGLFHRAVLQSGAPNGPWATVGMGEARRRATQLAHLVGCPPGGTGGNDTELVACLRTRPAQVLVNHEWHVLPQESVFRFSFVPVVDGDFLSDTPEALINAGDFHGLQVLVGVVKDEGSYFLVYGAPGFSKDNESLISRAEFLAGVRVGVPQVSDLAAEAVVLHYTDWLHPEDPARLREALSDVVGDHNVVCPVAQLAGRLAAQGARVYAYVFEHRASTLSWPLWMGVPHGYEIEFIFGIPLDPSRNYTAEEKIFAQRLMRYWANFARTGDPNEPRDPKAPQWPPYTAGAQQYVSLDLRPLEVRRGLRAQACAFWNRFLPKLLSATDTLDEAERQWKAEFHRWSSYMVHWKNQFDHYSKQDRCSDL

[13] = Antioxidant activity assessed as ROS scavenging activity relative to control; type: functional; conditions: dose or concentration not given here
Rattus norvegicus = assay: Anti-inflammatory activity against carrageenan-induced paw edema in Albino rat assessed as inhibition of paw edema at 50 mg/kg, po relative to control; type: functional; parameters: scale not given: the % may be the effect or the level left
DLD-1 = assay: Cytotoxicity against human DLD-1 cells assessed as reduction in cell growth incubated for 24 hrs by SRB assay; type: functional, cell-based; conditions: DLD-1, 24 h
HA22T cell line = assay: Cytotoxicity against human HA22T cell line assessed as reduction in cell growth incubated for 24 hrs by SRB assay; type: functional, cell-based
HepG2 = assay: Cytotoxicity against human HepG2 cells assessed as reduction in cell growth incubated for 24 hrs by SRB assay; type: functional, cell-based; conditions: HepG2, 24 h
NUGC-3 = assay: Cytotoxicity against human NUGC-3 cells assessed as reduction in cell growth incubated for 24 hrs by SRB assay; type: functional, cell-based; conditions: NUGC-3, 24 h
MCF7 [14] = assay: Cytotoxicity against human MCF7 cells assessed as reduction in cell growth incubated for 24 hrs by SRB assay; type: functional, cell-based; conditions: MCF7, 24 h
[15] = Cytotoxicity against human WI-38 cells assessed as reduction in cell growth incubated for 24 hrs by SRB assay; type: toxicity, cell-based
HONE1 cell line = assay: Cytotoxicity against human HONE1 cell line assessed as reduction in cell growth incubated for 24 hrs by SRB assay; type: toxicity, cell-based; conditions: HONE1, 24 h

In the case of O=c1[nH]c(-c2sc3ccccc3c2Cl)nc2ccccc12, the “inhibition zone (IZ)” value (Bacillus subtilis [1]) was 16 mm and the “inhibition zone (IZ)” value (Escherichia coli) was 12 mm.

With CN1C(C(=O)Nc2ccccn2)=C(O)c2sccc2S1(=O)=O [TENOXICAM] the half-life [2] was 72 h.

CC(C(=O)O)c1ccc(C(=O)c2ccccc2)s1 (stereo not drawn) [TIAPROFENIC ACID] gave a half-life [2] of 1.5 h.

In the case of O=c1c2ccccc2nc(-c2sc3ccccc3c2Cl)n1-c1ccc([N+](=O)[O-])cc1, the “inhibition zone (IZ)” value (Candida albicans) was 17 mm and the “inhibition zone (IZ)” value (Arthroderma pannicola) was 17 mm.

Cc1cc(Cl)ccc1-c1ccc(NC(=O)C(Cc2ccc(C(=O)NCCS(=O)(=O)O)s2)c2ccc(-c3ccc(OC(F)(F)F)cc3)cc2)cc1 (stereo not drawn) gave a pIC50 (Glucagon receptor [3]) of 5.36 and a pIC50 (Glucagon receptor [4]) of 5.21.

For O=c1c2ccccc2nc(-c2sc3ccccc3c2Cl)n1-c1ccc(F)cc1, the “inhibition zone (IZ)” value (Candida albicans) was 14 mm and the “inhibition zone (IZ)” value (Arthroderma pannicola) was 14 mm.

COc1ccsc1CNCC[C@@]1(c2ccccn2)CCOC2(CCCC2)C1 [OLICERIDINE] showed a half-life [5] of 1.3 h.

CC(=O)Oc1cc2c(s1)CCN(C(C(=O)C1CC1)c1ccccc1F)C2 (stereo not drawn) gave a half-life [6] of 7.4 h.

Work on C/C(=N\N=C1/CS(=O)(=O)N(C)c2ccccc21)c1sccc1Cl yielded a pIC50 [7] of 5.98.

Cc1ccsc1C(=CCCN1CCC[C@@H](C(=O)O)C1)c1sccc1C [TIAGABINE] showed a half-life [2] of 7 h.

Work on Clc1ccc(C2CC(c3ccc(Cl)s3)=NN2c2ccccc2)cc1 (stereo not drawn) yielded a pIC50 (dsRNA) of 4.96.

For N#Cc1c(-n2c(N)c(C#N)c(N)c(/N=N/c3ccccc3)c2=O)sc2c1CCCC2, the GI50 (NCI-H460) was 8300 nM, the GI50 (MCF7 [8]) was 2000 nM and the GI50 (SF-268) was 4000 nM.

In the case of COc1cc(/C=C/C(=O)c2cc3ccccc3s2)cc(OC)c1O, the pIC50 ([9]; read-out: IC50) was 5.22.

Compound CCOC(=O)c1c(NC(=O)c2cccc(C(F)(F)F)c2F)sc2c1CC(C)(C)NC2(C)C has a pEC50 (Leishmania major) of 7.05.

With Nc1sc2c(c1C(=O)Nc1cnc3ccccc3c1)CCCC2 the pIC50 (MCF7 [10]; Homo sapiens, MCF7, read-out: IC50) was 4.48.

Work on COc1ccc(/C=C2\SC(=S)N(NC(=O)c3sc4ccccc4c3Cl)C2=O)cc1OC yielded a pIC50 [11] of 5.63.

For Clc1c(-c2nnc(CNc3ccccc3)o2)sc2ccccc12, the “inhibition zone (IZ)” value (Bacillus subtilis [12]) was 16 mm and the “inhibition zone (IZ)” value (Staphylococcus aureus) was 15 mm.

O=C(/C=C/c1cccs1)c1ccc(OCCCCBr)cc1 showed a pIC50 (Acetylcholinesterase) of 6.38.

For CCOC(=O)c1c(NC(=O)c2c(NC(=O)CC#N)sc3c2CCC3)sc2c1CCCC2, the inhibition [13] was 64.1%.

N#Cc1c(-c2ccc(N3CCOCC3)cc2)csc1N gave an Activity (Rattus norvegicus) of 48.94%.

For N#CC(C#N)=NNc1sc2c(c1C1=NC(=O)C(Cc3ccc(Cl)cc3)S1)CCCC2 (stereo not drawn), the pIC50 (DLD-1) was 7.23, the pIC50 (HA22T cell line) was 7.23 and the pIC50 (HepG2) was 7.23. For the same compound, the pIC50 (NUGC-3) was 7.23, the pIC50 (MCF7 [14]) was 7.23 and the IC50 at 24 h [15] was 59 nM. It also gave a pIC50 (HONE1 cell line) of 7.23.

With Cc1cc(C2=NO[C@@](c3cc(Cl)c(Cl)c(Cl)c3)(C(F)(F)F)C2)sc1C(=O)NCC(=O)NCC(F)(F)F [LOTILANER] the half-life [2] was 11 h.

With COc1ccc2c3ccnc(C)c3n(CC3CC(c4cccs4)=NO3)c2c1 (stereo not drawn) the pIC50 [11] was 4.53.

Compound COc1cccc(NC(=O)Cn2cc(CN3CNc4sccc4C3=O)nn2)c1 has an IC50 [9] of 30.16 µg/mL.

For Oc1ccc(Nc2nnnc3sc4c(c23)CCC4)cc1, the IC50 (MCF7 [10]; mcf7) was 38730 nM.
